Measurements as given in US8455515B2, “Substituted 4-phenyltetrahydroisoquinolines, process for their preparation, pharmaceutical compositions and therapeutic use” (Sanofi, priority 2005, dated 2013).
Where a name gives a salt, the structure may show the parent alone.

Key:
NHE [1] = biological target: T1, NHE (Homo sapiens, UniProt P48764); assay: recovery of intracellular pH in LAP1 cells expressing NHE (FLIPR, BCECF); format: cell-based; conditions: LAP1 cells stably expressing NHE, pH recovery after acidification
T1 sequence (P48764 26-834): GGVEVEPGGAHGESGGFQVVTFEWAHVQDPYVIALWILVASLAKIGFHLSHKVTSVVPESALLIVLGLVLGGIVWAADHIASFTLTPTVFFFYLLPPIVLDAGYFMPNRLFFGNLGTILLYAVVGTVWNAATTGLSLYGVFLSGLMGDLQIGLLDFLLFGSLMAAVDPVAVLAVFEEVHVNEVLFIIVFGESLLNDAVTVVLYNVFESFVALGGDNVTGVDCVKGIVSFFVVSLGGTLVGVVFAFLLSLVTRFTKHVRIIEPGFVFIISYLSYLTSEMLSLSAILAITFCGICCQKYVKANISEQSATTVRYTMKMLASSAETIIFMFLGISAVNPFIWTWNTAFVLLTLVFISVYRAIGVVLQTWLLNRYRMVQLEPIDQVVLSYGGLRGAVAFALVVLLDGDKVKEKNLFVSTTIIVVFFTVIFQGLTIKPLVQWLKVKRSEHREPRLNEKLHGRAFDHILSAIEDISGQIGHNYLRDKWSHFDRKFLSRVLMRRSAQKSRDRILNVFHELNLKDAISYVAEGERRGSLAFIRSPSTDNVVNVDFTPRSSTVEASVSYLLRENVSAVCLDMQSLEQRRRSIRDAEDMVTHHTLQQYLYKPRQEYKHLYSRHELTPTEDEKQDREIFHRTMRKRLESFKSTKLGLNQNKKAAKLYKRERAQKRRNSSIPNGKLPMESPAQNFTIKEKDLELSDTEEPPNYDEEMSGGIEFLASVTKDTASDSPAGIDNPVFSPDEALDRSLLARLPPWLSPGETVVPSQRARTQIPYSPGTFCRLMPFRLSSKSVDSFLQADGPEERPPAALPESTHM
Protocol: NHE and NHE5 Test Description:
In this test, the recovery in the intracellular pH (pHi) of LAP1 cells, which stably express the different subtypes of the sodium-proton exchanger (NHE), after an acidification was determined. This recovery sets in even under bicarbonate-free conditions in the case of functioning NHE. To this end, the pHi was determined with the pH-sensitive fluorescent dye BCECF (Molecular Probes, Eugene, Oreg., USA; the precursor BCECF-AM is used). The cells were first incubated with BCECF (5 μM BCECF-AM) in NH4Cl buffer (NH4Cl buffer: 115 mM cholineCl, 20 mM NH4Cl, 5 mM KCl, 1 mM CaCl2, 1 mM MgCl2, 20 mM Hepes, 5 mM glucose; a pH of 7.4 is established with 1 M KOH). […] The pH recovery was started by the addition of 90 μl of Na^+-containing buffer (133.8 mM NaCl, 4.7 mM KCl, 1.25 mM CaCl2, 1.25 mM MgCl2, 0.97 mM Na2HPO4, 0.23 mM NaH2PO4, 10 mM Hepes, 5 mM glucose; a pH of 7.4 is established with 1 M NaOH) in the analytical instrument (FLIPR, “Fluorometric Imaging Plate Reader”, Molecular Devices, Sunnyvale, Calif., USA). The BCECF fluorescence was determined at an excitation wavelength of 498 nm and the FLIPR emission filter 1 (band gap from 510 to 570 nm). The subsequent changes in fluorescence were registered for NHE and NHE5 for two minutes as a measure of the pH recovery. […]

hippocampus sections = assay: long-term experiments on hippocampus sections (in vitro), weak tetanus early LTP in CA 1; parameters: species or system rats; conditions: rat hippocampus sections, 10 μM
NHE-2 = biological target: T2, NHE-2 (Homo sapiens, UniProt Q9UBY0); assay: inhibitory action on NHE subtypes: NHE-2; conditions: therapeutically utilizable concentration range
T2 sequence (Q9UBY0 1-812): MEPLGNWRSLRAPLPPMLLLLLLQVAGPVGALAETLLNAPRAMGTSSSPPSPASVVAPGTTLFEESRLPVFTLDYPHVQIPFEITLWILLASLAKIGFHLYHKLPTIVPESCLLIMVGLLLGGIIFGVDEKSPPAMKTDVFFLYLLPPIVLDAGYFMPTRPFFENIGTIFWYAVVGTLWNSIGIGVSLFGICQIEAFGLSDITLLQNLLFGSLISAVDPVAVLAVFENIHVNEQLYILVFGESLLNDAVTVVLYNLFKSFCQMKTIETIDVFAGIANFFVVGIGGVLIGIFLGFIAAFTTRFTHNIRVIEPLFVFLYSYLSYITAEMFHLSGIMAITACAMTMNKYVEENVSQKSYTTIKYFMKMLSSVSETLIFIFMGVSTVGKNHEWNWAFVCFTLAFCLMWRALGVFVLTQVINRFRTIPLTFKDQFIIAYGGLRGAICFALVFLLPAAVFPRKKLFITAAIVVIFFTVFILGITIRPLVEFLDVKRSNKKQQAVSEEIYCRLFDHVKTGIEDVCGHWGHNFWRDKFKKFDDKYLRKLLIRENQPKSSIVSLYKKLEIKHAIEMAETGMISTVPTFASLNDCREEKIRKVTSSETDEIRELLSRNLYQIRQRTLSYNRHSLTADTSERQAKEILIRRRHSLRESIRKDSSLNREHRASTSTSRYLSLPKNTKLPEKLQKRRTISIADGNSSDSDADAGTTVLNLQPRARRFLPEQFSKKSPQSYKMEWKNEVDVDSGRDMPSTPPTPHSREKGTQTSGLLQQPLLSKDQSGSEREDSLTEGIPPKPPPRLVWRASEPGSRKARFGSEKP

NHE-5 = biological target: T3, NHE-5 (Homo sapiens, UniProt Q14940); assay: inhibitory action on NHE subtypes: NHE-5; conditions: therapeutically utilizable concentration range
T3 sequence (Q14940 1-896): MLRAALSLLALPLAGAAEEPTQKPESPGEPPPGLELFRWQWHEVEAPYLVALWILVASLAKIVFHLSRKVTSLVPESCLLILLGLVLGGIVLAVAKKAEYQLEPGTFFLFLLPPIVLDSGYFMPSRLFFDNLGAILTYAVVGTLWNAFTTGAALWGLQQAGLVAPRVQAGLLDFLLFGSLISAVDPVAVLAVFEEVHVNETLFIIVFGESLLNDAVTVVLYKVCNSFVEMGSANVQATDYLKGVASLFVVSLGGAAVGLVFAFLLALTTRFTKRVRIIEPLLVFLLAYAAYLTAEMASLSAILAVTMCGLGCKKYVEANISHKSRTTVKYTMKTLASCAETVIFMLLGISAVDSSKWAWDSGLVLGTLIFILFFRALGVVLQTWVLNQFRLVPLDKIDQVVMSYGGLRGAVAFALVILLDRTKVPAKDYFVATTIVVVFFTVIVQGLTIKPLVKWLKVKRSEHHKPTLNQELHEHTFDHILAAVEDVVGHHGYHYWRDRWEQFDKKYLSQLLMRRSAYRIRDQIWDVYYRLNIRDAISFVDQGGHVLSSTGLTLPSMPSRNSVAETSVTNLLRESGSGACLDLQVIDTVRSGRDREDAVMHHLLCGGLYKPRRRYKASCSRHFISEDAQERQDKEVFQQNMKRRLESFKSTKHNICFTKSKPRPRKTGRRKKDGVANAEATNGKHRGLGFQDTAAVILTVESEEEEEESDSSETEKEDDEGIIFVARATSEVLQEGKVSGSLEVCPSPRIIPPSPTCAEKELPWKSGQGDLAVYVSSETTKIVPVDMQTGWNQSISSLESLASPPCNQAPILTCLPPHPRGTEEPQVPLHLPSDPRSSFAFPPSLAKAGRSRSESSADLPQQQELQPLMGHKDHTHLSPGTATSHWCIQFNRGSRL

NHE-1 = NHE-1 (Homo sapiens, UniProt P19634); assay: inhibitory action on NHE subtypes: NHE-1; conditions: therapeutically utilizable concentration range
NHE [2] = biological target: T1, NHE; assay: inhibitory action on NHE subtypes: NHE; conditions: therapeutically utilizable concentration range
[3] = test system: adrenergic alpha-2 receptor; conditions: cited from earlier work
imidazoline receptor = conditions: cited from earlier work

Chain of NHE-1 (P19634 whole entry, species assumed): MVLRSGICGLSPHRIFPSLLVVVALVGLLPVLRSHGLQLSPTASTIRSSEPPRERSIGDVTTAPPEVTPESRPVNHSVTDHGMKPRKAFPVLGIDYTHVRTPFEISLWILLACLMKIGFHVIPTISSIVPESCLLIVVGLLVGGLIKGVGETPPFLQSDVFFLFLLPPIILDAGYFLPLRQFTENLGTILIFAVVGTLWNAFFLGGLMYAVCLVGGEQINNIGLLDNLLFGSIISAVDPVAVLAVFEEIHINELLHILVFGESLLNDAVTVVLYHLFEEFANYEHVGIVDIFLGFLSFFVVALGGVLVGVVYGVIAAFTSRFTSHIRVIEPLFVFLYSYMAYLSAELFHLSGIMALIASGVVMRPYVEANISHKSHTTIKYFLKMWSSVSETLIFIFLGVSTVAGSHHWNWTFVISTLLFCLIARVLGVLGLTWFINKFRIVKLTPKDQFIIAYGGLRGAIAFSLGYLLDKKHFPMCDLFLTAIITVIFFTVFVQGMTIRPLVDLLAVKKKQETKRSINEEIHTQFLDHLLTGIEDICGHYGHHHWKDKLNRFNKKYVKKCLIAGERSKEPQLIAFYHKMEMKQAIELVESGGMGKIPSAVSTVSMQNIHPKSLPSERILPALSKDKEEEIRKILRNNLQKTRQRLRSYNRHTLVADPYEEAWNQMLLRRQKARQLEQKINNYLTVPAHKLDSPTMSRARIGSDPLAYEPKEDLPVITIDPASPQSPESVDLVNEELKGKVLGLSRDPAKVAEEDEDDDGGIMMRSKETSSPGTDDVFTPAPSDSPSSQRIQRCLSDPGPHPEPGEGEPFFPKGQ

Compound: CN1Cc2c(Cl)cc(Cl)cc2C(c2ccc(S(=O)(=O)N=C(N)N)cc2)C1 (stereo not shown) [Example 1, N-Diaminomethylene-4-(6,8-dichloro-2-methyl-1,2,3,4-tetrahydro-isoquinolin-4-yl)benzenesulfonamide, dihydrochloride]
- IC50 (NHE [1]): 35 nM
- intrinsic effect on synaptic transmission (hippocampus sections; before tetanus): no intrinsic effect
- potentiation of the EPSP 80 min after the stimulus (hippocampus sections; weak tetanus, 80 min after stimulus (control 113%)): 137 % of the baseline

Compound: CN1Cc2c(Cl)cc(Cl)cc2C(c2ccc(S(=O)(=O)N=C(N)N)cc2)C1 (stereo not shown) (as salt: hydrochloride) [Example 1, N-Diaminomethylene-4-(6,8-dichloro-2-methyl-1,2,3,4-tetrahydro-isoquinolin-4-yl)benzenesulfonamide, dihydrochloride]
- melting point: 140 °C (dec.)

Compound: Cc1csc(Cl)c1NC1=NCCN1 [tiamenidine]
- inhibitory action on NHE-2 (NHE-2): no relevant inhibitory actions
- inhibitory action on NHE-5 (NHE-5): no relevant inhibitory actions
- inhibitory action on NHE-1 (NHE-1): no relevant inhibitory actions
- inhibitory action on NHE (NHE [2]): no relevant inhibitory actions

Compound: Clc1cccc(Cl)c1N=C1NCCN1 [Clonidine]
- affinity for the adrenergic alpha-2 receptor [3]: high affinity
- affinity for the imidazoline receptor (imidazoline receptor): high affinity
